We go through ten compounds from ChEMBL document CHEMBL5728971, “Small molecule inhibitors of lactate dehydrogenase and methods of use thereof” (2022).

This assay is described as follows: Biochemical Assay: Test compounds were placed in a Greiner Bio-One (Monroe, N.C.) 1536-well black solid bottom assay plate. 200 millimolar (mM) Tris HCl, pH 7.4, 100 micromolar (μM) EDTA and 0.01% TWEEN-20™, final concentration, was used as the assay buffer. The LDHA reagent was 2 nanomolar (nM) Human LDHA (Meridian Life Science, Inc., Memphis, Tenn.), final concentration, in assay buffer.
In the case of `CCOC(=O)c1csc(-n2nc(-c3ccccc3)c(Oc3ccc(S(N)(=O)=O)cc3)c2C2CCCCC2)n1`, the IC50 (in general, the midpoint of a concentration-inhibition curve) was > 57000 nM.

As for `NS(=O)(=O)c1ccc(Cc2c(-c3ccc(F)c(C#CC(F)(F)F)c3)nn(-c3nc(C(=O)O)cs3)c2CC2CC2)cc1F`, the half-inhibitory concentration (IC50) entry is “in the range around 550 nM”.

As to `O=C(O)c1csc(-n2nc(-c3ccc(Cl)cc3)cc2C(F)(F)F)n1`, the 50% inhibitory concentration (IC50) result was “in the range around 29000 nM”.

Consider `NS(=O)(=O)c1ccc(Cc2c(CC3CC3)nn(-c3nc(C(=O)O)cs3)c2-c2cccc(OCc3ccccc3)c2)cc1`, for which the concentration for half-maximal inhibition (IC50) entry was “in the range around 29000 nM”.

With `C=C(c1cc(-c2nn(-c3nc(C(=O)O)cs3)c(CC3CC3)c2Cc2ccc(S(N)(=O)=O)c(F)c2)ccc1F)C(F)(F)F`, the IC50 was < 100 nM.

As for `NS(=O)(=O)c1ccc(Cc2c(-c3cccc(-c4cccc(F)c4)c3)nn(-c3nc(C(=O)O)cs3)c2C2CC2)c(F)c1`, the IC50 is < 100 nM.

Regarding `NS(=O)(=O)c1ccc(Cc2c(-c3ccc(F)c(C#CC4CC4)c3)nn(-c3nc(C(=O)O)cs3)c2CC2CC2)cc1`, the 50% inhibitory concentration (IC50) is < 100 nM.

With `Cc1ccc(-c2cccc(-c3nn(-c4nc(C(=O)O)cs4)c(C4CC4)c3Cc3ccc(S(N)(=O)=O)c(F)c3)c2)cc1`, the IC50 is < 100 nM.

`CC1(C#Cc2cc(-c3nn(-c4nc(C(=O)O)cs4)c(CC4CC4)c3Cc3ccc(S(N)(=O)=O)c(F)c3)ccc2F)COC1`: the half-maximal inhibitory concentration (IC50) was < 100 nM.

For the compound `NS(=O)(=O)c1ccc(Cc2c(CC3CC3)nn(-c3nc(C(=O)O)cs3)c2-c2ccc(F)c(Br)c2)cc1`, the half-maximal inhibitory concentration (IC50) result was “in the range around 29000 nM”.
